Experiments:
[1] = test system: U87 cell line; experiment: Subcutaneous human glioma xenograft in SCID mice; type: in vivo; details: for tumor volume at day 21: U87 subcutaneous xenograft, 20 mg/kg/day intraperitoneal, 21 days, control 1514 mm^3; for median survival: U87 xenograft, 20 mg/kg, control 15 days
From the text: To examine the anti-glioma effects of DMC-BH in vivo, a human glioma-SCID (severe combined immunodeficient) mouse model was established using the U87 cell line. […] The tumor volumes for the control, TMZ, DMC, and DMC-BH mice at day 21 were 1514 mm^3, 587 mm^3, 876 mm^3 and 570 mm^3, respectively. […] As shown in the Kaplan-Meier curves, the median survival was 15, 27, 19 and 35 days for the control, TMZ, DMC and DMC-BH groups, respectively (Figure 3B).
Figure 3 DMC-BH inhibited U87 glioma cell growth in vivo. Subcutaneous tumors generated from U87 cells were allowed to reach a volume of 150-200 mm^3 and were treated with 20 mg/kg TMZ, DMC or DMC-BH for 21 days. (A) Tumor volume was recorded according to treatment group at the indicated day. (B) The survival of brain tumor-bearing mice was recorded and represented in a Kaplan-Meier plot.
1-[4-Hydroxy-3-(pyrrolidin-1-ylmethyl) phenyl]-7-(4-hydroxy-3-methoxyphenyl) hepta-1,6-diene-3,5-dione, named DMC-BH, was constructed by our lab. DMC was obtained from Sigma-Aldrich (St. Louis, MO). To test the anti-glioma effect of DMC-BH in vivo, a xenograft model of human glioma was established. Four-week-old male SCID mice were purchased from Vital River Laboratory Animal Technology Co., Ltd. (Beijing, China). After a 1-week acclimatization, SCID mice were injected subcutaneously in the right flank with 6 × 10^5 […] glioma cells resuspended in 50 μL DMEM media. Treatment was initiated when the subcutaneous tumors reached an average size of 150 mm^3 to 200 mm^3. Mice received intraperitoneal injection of DMC (20 mg/kg/day), DMC-BH (20 mg/kg/day), TMZ (20 mg/kg/day) or vehicle as a control. Tumor diameter was measured every 2 days with calipers, and the tumor volume was calculated (length × width × height × 0.5). All experiments were carried out in keeping with the procedures and protocols of the Animal Ethics Committee of the First People's Hospital of Kunshan.

[2] = test system: ICR mice; experiment: in vivo; details: mouse; for Mortality rate (%) / No. of dead mice: female, ICR, 14 days
[3] = in vivo; details: female, ICR, mouse, ip
[4] = test system: U251 glioma cells; experiment: MTT cell viability assay, U251; type: cell-based; details: Homo sapiens, U-251, 72 hours
Experimental: (§1) To investigate the cytotoxicity of DMC-BH on glioma cells (Figure 1A), we used an MTT assay to assess viability changes in SHG-44, C6, U251, U87, A172 and primary glioma cells treated with various concentrations of DMC-BH for 24, 48 or 72 hours (Figure 1B–1H). […] U251 and SHG-44 cells were more sensitive to DMC-BH. We then used the human glial cell line, HEB, to evaluate the toxicity of DMC-BH in normal cells. […] DMC-BH was not toxic to normal cells.
(§2) The human GBM U87-luc cell line was purchased from the Shanghai Sunbio Medical Biotechnology Co., Ltd. (Shanghai, China). Cells were cultured in DMEM supplemented with 10% fetal bovine serum (FBS) and maintained in an incubator at 37° C and 5% CO2. After cells were routinely passaged at 2- to 3-day intervals, animal experiments were carried out when the cells entered exponential growth phase. Rat C6, human SHG-44, U87, A172 and U251 glioma cells were obtained from the Shanghai Institute of Cell Biology, Chinese Academy of Sciences (Shanghai, China). Primary glioma cells were preserved by our laboratory from previous studies. […]
(§3) Glioblastoma cells were seeded into 96-well plates and exposed to vehicle (PBS) or different concentrations of DMC-BH for 24, 48 or 72 hours. Cell viability was measured using an MTT assay and was expressed as a ratio to the absorbance value of the control cells at 570 nm.

[5] = test system: A172 glioma cells; experiment: MTT cell viability assay, A172; type: cell-based; details: Homo sapiens, A 172, 72 hours
Experimental: as §1, §2, §3

[6] = test system: p-Akt; experiment: Western blot of orthotopic xenograft tissue, p-Akt; type: in vivo, mice; details: U87 orthotopic xenografts, versus control
From the text: (§4) The PI3K/Akt/mTOR signaling pathway is over activated in glioma tissues, and this increased activation is closely related to malignancy and chemoresistance of gliomas. Previous research reported that among its potential anti-tumor actions in breast cancer, DMC targeted multiple AMPK downstream pathways involving dephosphorylation of Akt and mTOR inhibition. Because DMC-BH is a DMC derivative, we further investigated the inhibitory effects of DMC-BH on gliomas by targeting the Akt/mTOR signaling pathway. We evaluated the expression of p-Akt, and p-mTOR in tumor tissues after DMC-BH treatment (Figure 6A). […] No significant changes were found in total Akt and mTOR expression. Moreover, the expression of p-Akt and p-mTOR in the DMC group was decreased with that in the control group (P < 0.05).
(§5) Figure 6 The effects of DMC-BH and DMC on the Akt/mTOR signaling pathway in U87 orthotopic glioblastoma xenografts. (A) Total protein was extracted from U87 orthotopic glioblastoma xenografts. Then p-Akt and p-mTOR protein expression was detected by Western blot. (B) The column chart illustrates the relative expression levels of these proteins.

[7] = test system: p-mTOR; experiment: Western blot of orthotopic xenograft tissue, p-mTOR; type: in vivo, mice; details: U87 orthotopic xenografts, versus control
From the text: as §4, §5

[8] = test system: CYP-450; experiment: CYP-450-related metabolism; type: in vitro ADME
[9] = test system: human glial cell line, HEB; experiment: MTT assay on normal glial cells; type: cell-based; details: 24 hours of incubation with 32 μM
Experimental: as §1, §3

Compound: COc1cc(C=CC(=O)CC(=O)C=Cc2ccc(O)c(CN3CCCC3)c2)ccc1O [DMC-BH, 1-[4-Hydroxy-3-(pyrrolidin-1-ylmethyl)phenyl]-7-(4-hydroxy-3-methoxyphenyl) hepta-1,6-diene-3,5-dione]
- tumor volume at day 21 [1]: 570 mm^3
- median survival [1]: 35 days
- Mortality rate (%) ([2]; 5 mg/kg): 0.0%
- No. of dead mice ([2]; 5 mg/kg): 0
- Mortality rate (%) ([2]; 10 mg/kg): 0.0%
- No. of dead mice ([2]; 10 mg/kg): 0
- Mortality rate (%) ([2]; 20 mg/kg): 0.0%
- No. of dead mice ([2]; 20 mg/kg): 0
- Mortality rate (%) ([2]; 30 mg/kg): 10.0%
- No. of dead mice ([2]; 30 mg/kg): 1
- abnormalities compared to the control mice [2]: no abnormalities
- LD50 at 14 days [3]: 48.1 mg/kg
- IC50 [4]: 2.52 µM
- IC50 [5]: 5.68 µM
- p-Akt expression in tumor tissues [6]: significantly decreased
- p-mTOR expression in tumor tissues [7]: significantly decreased
- CYP-450-related metabolism [8]: low
- viability of HEB cells [9]: not reduced markedly

Compound: Demethoxycurcumin [DMC, reference compound]
- tumor volume at day 21 [1]: 876 mm^3
- median survival [1]: 19 days
- p-Akt expression in tumor tissues [6]: decreased
- p-mTOR expression in tumor tissues [7]: decreased

From article PMC7762498, “Demethoxycurcumin analogue DMC-BH exhibits potent anticancer effects on orthotopic glioblastomas” (Aging (Albany NY), 2020)
